Laboratory results as given in patent publication US20140323420A1, “REDUCING TRANSMISSION OF SEXUALLY TRANSMITTED INFECTIONS” (University of Rochester, priority 2011, published 2014).
“Also recorded” adds a separate entry of the source. Read-outs that look alike come from different tables or passages of the source. Each block holds one compound with its values, some of them ahead of it.

Legend:
[1] = molecular target: T1, SEVI fibrils (Homo sapiens, UniProt P15309); assay: Example 3: fluorescence assay, Kd of monomer and oligomers 1-5 to SEVI fibrils; assay type: binding; conditions: Example 3, Table 2, estimated
T1 construct: PAP248-286 peptide was synthesized by New England Peptide; purchased New England Peptide (Gardner, Mass.); host or cells: chemical synthesis
T1 sequence (P15309 248-286 limits assumed): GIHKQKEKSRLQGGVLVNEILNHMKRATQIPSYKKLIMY
Method: To test whether binding affinity/avidity is reduced in oligomeric forms, the binding of monomeric and oligomeric forms was assayed to determine the affinity/avidity constants (Kd) for the binding of monomer and oligomers 1-5 to amyloid fibrils formed from SEVI peptides.

[2] = molecular target: T2, Aβ(1-42) fibrils (Homo sapiens, UniProt P05067); assay: Example 4: centrifugation fluorescence binding assay of 1-5 to Aβ(1-42) fibrils
T2 construct: Aβ(1-42) peptide was purchased from GL Biochem (Shanghai, China) Ltd; purchased GL Biochem (Shanghai, China) Ltd; host or cells: synthetic peptide; fibrils grown in PBS at 37 °C for 24 h
T2 sequence (P05067 672-713 limits assumed): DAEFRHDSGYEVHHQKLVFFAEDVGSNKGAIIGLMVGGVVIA
Method: The binding of BTA monomer oligomer to amyloid fibrils was measured according to the centrifugation assay described by Levine for BTA-1 to Aβ fibrils (Levine et al., Amyloid 12:5-14 (2005)). […] These incubations were performed in duplicate runs and allowed to equilibrate for 12 hours at room temperature. After equilibration, each solution was centrifuged at 16,000 g for 20 minutes at 4° C. The supernatants were separated from the pelleted fibrils, and 220 μL of fresh 5% DMSO/PBS was added to re-suspend the pellets. 100 μl aliquots of each re-suspended pellet was pipetted into a cuvette (ultramicrocuvette, 10-mm light path, Hellma®, Müllheim, Germany), and the fluorescence of the bound molecule was determined at 355 nm excitation and 420 nm emission using a spectrofluorometer (Photon Technology International, Inc., Birmingham, N.J.). Each experiment was repeated at least 3 times. Error bars represent standard deviations from the mean. […] The data were processed using Origin 7.0 (MicroCal Software, Inc., Northampton, Mass.).

[3] = molecular target: T1, SEVI fibrils; assay: Example 4: centrifugation fluorescence binding assay of 1-5 to SEVI fibrils; conditions: Table 3, 5% DMSO/PBS
Source text: Each experiment was repeated at least 3 times. Error bars represent standard deviations from the mean.
When the Kd values of compounds 1-5 to SEVI fibrils was examined, a similar trend for improved binding of the oligomeric BTA compounds was observed (Table 3). The greatest improvement in binding as a function of increasing valence number in the oligomer was observed when comparing the monomer to dimer and the tetramer to pentamer.

[4] = molecular target: T1, SEVI fibrils; assay: Flow cytometry: binding of SEVI-biotin fibrils to the Jurkat cell surface; assay type: cell-based; conditions: 1 h; for MFI (mean fluorescent intensity): Jurkat cells + SEVI-biotin
Method: Cells were incubated for 1 h at 37° C., washed, and stained for 1 h with a covalent conjugate of streptavidin and fluorescein isothiocyanate (SA-FITC). Cells were washed and run on an Accuri C6 Flow Cytometer (Accuri Cytometers, Ann Arbor, Mich.). Data were analyzed using FlowJo (TreeStar Inc, Ashland, Oreg.).
After that time, fibrillar structures were examined by ThT fluorescence. ThT changes in fluorescence intensity when intercalated into the β-sheet structure common to amyloid fibrils; therefore, ThT fluorescence serves as a surrogate measure for fibrillar structure of SEVI and for the stability of SEVI fibrils. […] Binding of the fibrils to the cell surface was detected using SA-FITC. […] Surface-bound fibrils were detected with SA-FITC and measured by flow cytometry. Results are shown as percentage of cells with bound fibrils (SA-FITC+) as well as mean fluorescent intensity (MFI).

[5] = molecular target: T1, SEVI fibrils; assay: Fluorescence polarization: displacement of FITC-heparin from SEVI fibrils; assay type: binding; conditions: SEVI + 16 μg/ml FITC-heparin, 1 h room temperature
Method: Samples were incubated 1 h at room temperature and read on a PerkinElmer Life Sciences Envision 2012 multilabel reader (PerkinElmer, Waltham, Mass.) at an excitation λ=480 nm and emission λ=535 nm. The horizontal and vertical polarized fluorescence intensities were recorded, and the calculated polarization was determined in millipolarization units.
Samples were incubated for 1 hour at room temperature and polarized fluorescence was measured.

[6] = test system: A2En cells; assay: HIV-1 BaL + SEVI chemokine release from A2En cells (ELISA); assay type: cell-based, human; conditions: HIV-1BAL virions + SEVI
Method: (§2) Supernatant was collected at 6 and 24 h, and the production of the chemokines IL-8 and Mip-3α was measured by ELISA (R&D Systems). […] After 6 h, supernatants were collected, and the production of the chemokines IL-8 and Mip-3α was measured by ELISA (R&D systems, Minneapolis, Minn.).

[7] = test system: HIV-1ADA; assay: SEVI-mediated enhancement of HIV-1 ADA infection, CEM-M7 cells, luciferase; assay type: cell-based
Method: Treated virions were then added to 5×10^4 CEM-M7 cells/well in 96-well flat-bottomed tissue culture plates. After 2 h, the medium axis were replaced. Infection was assayed after 48 h by quantifying luciferase expression using the Promega Dual-Luciferase assay and a Beckman Coulter DTX880 plate reader.

[8] = test system: HIV-1IIIB; conditions: previously reported value for BTA-EG6; cited from earlier work
[9] = test system: HIV-1IIIB; assay: Semen-mediated enhancement of HIV-1 IIIB infection, CEM cells; assay type: cell-based; conditions: HIV-1 IIIB preincubated with 50% semen, diluted 15 fold onto CEM cells
Method: (§1) After 10 minutes, the stocks were diluted 15 fold and incubated with CEM 5.25 cells.

[10] = test system: cervical epithelial cell lines SiHa, A2En, 3EC1; assay type: cell-based, human
Source text: For a compound to be a legitimate HIV-1 microbicide candidate, it must not have toxic or inflammatory effects on the cervical […]. Loss of this protective layer leads to an increased ability for HIV-1 to cross the mucosal barrier, and inflammatory effects drive recruitment of HIV-1 target cells, further decreasing the natural barriers against successful transmission of HIV. […] To do this, the following cell lines were used: 1) SiHa cells, a cervical carcinoma cell line; 2) A2En cells, a primary cell-derived line from the endocervical […]; and 3) 3EC1 cells, a primary cell-derived line from the ectocervical […]. […] Viability was assessed at 24 h by using the resazurin cytotoxicity assay. Resazurin cytotoxicity data were confirmed by trypan blue counts of viable cells.

[11] = test system: HIV-1BaL; assay: SEVI-mediated enhancement of HIV-1 BaL infection of PBMCs, p24; assay type: cell-based
Method: Cells were washed at 3 h, and infection was analyzed at day 4 using the HIV-1 p24 antigen capture assay (Advanced Bioscience Laboratory).

[12] = test system: HIV-1 IIIB; assay: Virus binding assay (p24), HIV-1 IIIB virions; assay type: cell-based; conditions: Jurkat cells; for Inhibition of SEVI-enhanced binding of HIV-1 virions to the cell surface (p24 ELISA): with SEVI, 90 min
Method: as §1

[13] = test system: SiHa cells; assay: Semen-mediated chemokine release from SiHa cells (ELISA); assay type: cell-based; conditions: pooled human semen, 33 μg/ml BTA-EG6, 6 h
Method: as §2
After 6 h, supernatants were collected and analyzed for production of IL-8 or MIP-3α.

[14] = test system: HIV-1ADA; assay: Semen-mediated enhancement of HIV-1 ADA infection, CEM-M7 cells; assay type: cell-based
Method: After 15 min, the semen and virus mixture was diluted 1:15 into 5×10^4 CEM-M7 cells/well in a 96-well plate. Cells were washed after 1 h, and infection was assayed at 48 h as above.
As human semen has been reported to be toxic to cultured cells, a protocol that minimized this toxicity was used. Pooled human semen was added to HIV-1IIIB virus in a 1:1 dilution. After 15 min, this solution was added to cells at a 1:15 dilution for a final concentration of 3.3%.

[15] = molecular target: T3, aggregated Alzheimer disease-related Aβ(1-42) peptides (Homo sapiens, UniProt P05067); assay: Fluorescence binding assay of BTA-EG6 to aggregated Aβ(1-42) peptides; conditions: same fluorescence binding assay
T3 construct: aggregated Alzheimer disease-related Aβ(1-42) peptides
T3 sequence (P05067 672-713 limits assumed): as above
Source text: Error bars represent standard deviations from the mean.

[16] = test system: HIV-1IIIB; assay: SEVI-mediated enhancement of HIV-1 IIIB infection, CEM-M7 (CEM 5.25) cells, luciferase; assay type: cell-based; conditions: for Inhibition of SEVI-mediated enhancement of HIV-1 infection (luciferase): CEM cells, with SEVI fibrils, increasing concentrations
Method: After 2 h, the medium […] were replaced.

[17] = test system: cervical epithelial cell lines SiHa, A2En, 3EC1; assay type: cell-based, human; remark: listed apart in the source
Method: Cytokine and chemokine production was assessed at 12 h by ELISA (R&D systems). Cells were also treated with 0.1% nonoxynol-9 as a positive control for cytotoxicity and with 0.1 μg/ml FSL1, a synthetic diacylated lipoprotein derived from Mycoplasma salivarium (InvivoGen, San Diego, Calif.), as a positive control for chemokine production.
Nonoxynol-9 (non-9), a spermicide, was used as a positive control. […] Cell culture supernatants were then assessed for the presence of the inflammatory cytokines and chemokines Mip-3α (FIG. 5B), IL-8 (FIG. 16C), IL-1β, and TNF-α.

[18] = test system: HIV-1ADA; assay: Virus binding assay (p24), HIV-1 ADA virions; assay type: cell-based; conditions: A2En endocervical cells, with SEVI
Method: After 90 min, cells were washed to remove any unbound virus, and bound virions were detected using an HIV-1 p24 antigen capture assay (Advanced Bioscience Laboratory).
Surface-bound virions were then measured by p24 ELISA after washing off unbound virus. […] Additionally, this experiment was performed using A2En cells, a primary cell-derived endocervical cell line.

[19] = molecular target: T1, SEVI fibrils; assay: ThT fluorescence stability of preformed SEVI fibrils; conditions: 3 h incubation
Source text: After that time, fibrillar structures were examined by ThT fluorescence. ThT changes in fluorescence intensity when intercalated into the β-sheet structure common to amyloid fibrils; therefore, ThT fluorescence serves as a surrogate measure for fibrillar structure of SEVI and for the stability of SEVI fibrils.

[20] = test system: HIV-IIIB; assay: Screening hits: SEVI-mediated enhancement of HIV-IIIB infection, CEM-M7 cells; assay type: cell-based, HIV-1; conditions: 50 μM, 15 μg/mL SEVI, 48 hours
Method: Each of the selected compound shown below was incubated at 50 μM with 15 μg/mL of SEVI for 10 minutes. HIV-IIIB was then added and incubated for an additional 10 minutes prior to being added to CEM-M7 cells. After two hours the inoculum was removed and the cells washed with PBS. The cells were incubated for an additional 48 hours and then HIV infection was assessed by luciferase activity. Luciferase activity is graphed for each of the selected compounds in FIG. 29.
A high throughput assay was established to identify SEVI-binding compounds.

[21] = Table 3, 5% DMSO/PBS, read-out: Kd (nM) to Aβ(1-42) fibrils
[22] = heparin (100 μg/ml) positive control

- Kd [1]: 40 ± 6 nM
- Kd [2, 21]: 26 ± 6 nM
- Kd [3]: 40 ± 6 nM
Compound: Cc1ccc2nc(-c3ccc(NCCC(=O)NCCOCCOCCOCCOCCC(=O)NCCN(CCNC(=O)CCOCCOCCOCCOCCNC(=O)CCNc4ccc(-c5nc6ccc(C)cc6s5)cc4)CCNC(=O)CCOCCOCCOCCOCCNC(=O)CCNc4ccc(-c5nc6ccc(C)cc6s5)cc4)cc3)sc2c1 [Compound 3, BTA Trimer]

- SA-FITC+ (%), percentage of cells with bound fibrils [4, 22]: 31.7%
- MFI (mean fluorescent intensity) [4, 22]: 376
- Binding to SEVI fibrils, displacement of FITC-heparin (decrease of polarization) [5]: the polarization decreased
Compound: heparin [reference compound]

Compound: Cc1ccc2nc(-c3ccc(NCCOCCOCCOCCOCCOCCO)cc3)sc2c1 [BTA-EG6]
- Inhibition of SEVI-increased IL-8 release [6]: able to inhibit this release
- Inhibition of SEVI-mediated enhancement of HIV-1 infection (luciferase) ([7]; CEM-M7, 15 μg/ml SEVI): significant dose-dependent inhibition
- Effect on infectivity of HIV alone ([7]; CEM-M7, absence of SEVI): No effect on the infectivity of HIV-1ADA was observed
- Concentration required to completely neutralize the effects of SEVI on HIV-1 infection [8]: 44 µM
- Inhibition of semen-mediated enhancement of HIV infection (luciferase) [9]: capable of inhibiting semen mediated enhancement of HIV infection; also recorded: efficiently inhibited the semen mediated enhancement of HIV-1 infection
- Cell viability (Alamar Blue) [10]: did not affect the cell viability
- Cell viability (resazurin cytotoxicity assay) [10]: did not have any effects on cell viability
- SA-FITC+ (%), percentage of cells with bound fibrils ([4]; BTA-EG6 high (27 μg/ml)): 21.2%
- SA-FITC+ (%), percentage of cells with bound fibrils ([4]; BTA-EG6 low (5.5 μg/ml)): 36.6%
- MFI (mean fluorescent intensity) ([4]; BTA-EG6 high (27 μg/ml)): 38.7
- MFI (mean fluorescent intensity) ([4]; BTA-EG6 low (5.5 μg/ml)): 95.3
- Inhibition of SEVI-mediated enhancement of HIV-1 infection (p24) ([11]; HIV-1BAL, 15 μg/ml SEVI): able to inhibit SEVI-mediated enhancement of HIV-1 infection in PBMCs
- Effect on infectivity of HIV alone ([11]; HIV-1BaL, absence of SEVI): no effect on the infectivity of HIV-1BaL
- Effect on binding of HIV virions to the cell surface ([12]; absence of SEVI): no effect on the binding of HIV virions to the cell surface
- Inhibition of SEVI-enhanced binding of HIV-1 virions to the cell surface (p24 ELISA) [12]: decrease in HIV-1 binding to the cells
- Inhibition of SEVI-enhanced binding of HIV-1 virions to the cell surface (p24 ELISA) ([12]; listed as BTAEG6): efficiently abrogated
- Effect on semen-stimulated IL-8 and MIP-3α production [13]: no inhibitory effect on semen-stimulated chemokine production
- Inhibition of semen-mediated enhancement of HIV infection (luciferase) [14]: this effect extended to infection with an R5 virus
- Kd [15]: 111 ± 32 nM
- Inhibition of SEVI-mediated enhancement of HIV-1 infection (luciferase) [16]: decreasing levels of luciferase activity; also recorded: reducing infectivity nearly back to baseline levels
- Effect on infectivity of HIV alone ([16]; CEM-M7, absence of SEVI): no effect on the infectivity of HIV virus alone
- Binding to SEVI fibrils, displacement of FITC-heparin (decrease of polarization) [5]: capable of binding SEVI; also recorded: able to displace fluorescent heparin from the SEVI fibrils in a dose-dependent fashion
- Cytokine production (IL-1b, MIP-3a, TNF-a) by ELISA [17]: do not induce cytokine production
- Inhibition of SEVI-enhanced binding of HIV-1 virions to the cell surface (p24 ELISA) [18]: this effect was inhibited
- Effect on stability of preformed SEVI fibrils (ThT fluorescence) [19]: no effect on fibrillar stability

Compound: Cc1ccc2nc(-c3ccc(NCCC(=O)NCCOCCOCCOCCOCCC(=O)NCCNC(=O)CCOCCOCCOCCOCCNC(=O)CCNc4ccc(-c5nc6ccc(C)cc6s5)cc4)cc3)sc2c1 [Compound 2, BTA Dimer]
- Kd [1]: 75 ± 10 nM
- Fold lower Kd than monomer 1, Aβ(1-42) fibrils [2]: 8 fold
- Kd [2]: 29 ± 4 nM
- Kd [3]: 69 ± 1 nM

- Kd [1]: 107 ± 16 nM
- Kd [2, 21]: 235 ± 75 nM
- Kd [3]: 236 ± 90 nM
Compound: CCNC(=O)CCOCCOCCOCCOCCNC(=O)CCNc1ccc(-c2nc3ccc(C)cc3s2)cc1 [Compound 1, BTA Monomer]

Compound: COc1ccc2cc3[n+](cc2c1OC)CCc1cc2c(cc1-3)OCO2 [Compound 11A5]
- Inhibition of SEVI-mediated enhancement of HIV infection (luciferase) [20]: inhibited SEVI-mediated enhancement of HIV infection

- Kd [1]: 56 ± 6 nM
- Kd [2, 21]: 20 ± 5 nM
- Kd [3]: 59 ± 6 nM
Compound: CCNC(=O)C(CCCCNC(=O)CCOCCOCCOCCOCCNC(=O)CCNc1ccc(-c2nc3ccc(C)cc3s2)cc1)NC(=O)C(CCCCNC(=O)CCOCCOCCOCCOCCNC(=O)CCNc1ccc(-c2nc3ccc(C)cc3s2)cc1)NC(=O)C(CCCCNC(=O)CCOCCOCCOCCOCCNC(=O)CCNc1ccc(-c2nc3ccc(C)cc3s2)cc1)NC(=O)CCOCCOCCOCCOCCNC(=O)CCNc1ccc(-c2nc3ccc(C)cc3s2)cc1 (stereo not shown) [Compound 4, BTA Tetramer]

Compound: Cc1ccc2nc(-c3ccc(NCCOCCOCCOCCO)cc3)sc2c1 [BTA-EG4]
- Inhibition of semen-mediated enhancement of HIV infection (luciferase) [9]: capable of inhibiting semen mediated enhancement of HIV infection
- Cell viability (Alamar Blue) [10]: did not affect the cell viability
- Inhibition of SEVI-enhanced binding of HIV-1 virions to the cell surface (p24 ELISA) [12]: decrease in HIV-1 binding to the cells
- Inhibition of SEVI-mediated enhancement of HIV-1 infection (luciferase) [16]: decreasing levels of luciferase activity
- Binding to SEVI fibrils, displacement of FITC-heparin (decrease of polarization) [5]: capable of binding SEVI
- Cytokine production (IL-1b, MIP-3a, TNF-a) by ELISA [17]: do not induce cytokine production

Compound: COc1ccc(Cl)cc1-c1ccc(-c2c(C#N)c(N)n3c(nc4ccccc43)c2C#N)o1 [Compound 8E2]
- Inhibition of SEVI-mediated enhancement of HIV infection (luciferase) [20]: inhibited SEVI-mediated enhancement of HIV infection
